Here are results for three compounds from article PMC10766610, “DCAF1-based PROTACs with activity against clinically validated targets overcoming intrinsic- and acquired-degrader resistance” (Nature Communications, 2024).

Assay [1] has as its system TMD8 WT and TMD8 CRBN resist. cells. Nature of the assay: CellTiter-Glo viability, TMD8 WT vs CRBN resist. cells. It is filed as cell-based, human. The settings on record: CellTiter-Glo proliferation. As to the method:
TMD8 cells were grown in the presence of a CRBN-BTK PROTAC CBt using a gradual dose increase. Start treatment was 0.1 nM for 6 weeks, followed by 3 weeks at 0.4 nM and another 4 weeks at 10 nM to finally obtain CBt resistant TMD8 cells (TMD8 CRBN resist.).
d) Viability measured by cell titer-Glo for DBt-10 (green) vs (13) (purple) in WT (solid) vs CRBN resist.
(dotted) TMD8 cells. Data represents average ± standard deviation from n=3 replicates.
e) Repeat of the viability measured by cell titer-Glo for DBt-10 (green) vs (13) (purple) in WT (solid) vs
CRBN resist. (dotted) TMD8 cells with adjusted dose response range. Data represents average ±
standard deviation from n=3 replicates.
(§1) Source data are provided as a Source Data file
On the technique in general: Cellular ATP, detected with luciferase, serves as a proxy for viable cell number.

Assay [2] deals with BTK (Homo sapiens, UniProt Q06187). Description: Immunoblot of BTK in TMD8 WT and CRBN (CBt) resistant cells. It is filed as cell-based. Further details: performed with full-length BTK and endogenous DCAF1; expressed in transfected cells; host or cells: TMD8 cells, lentiviral, blasticidin-selected (TMD8 BTK-GFP/mCh). The settings on record: 24 h; 0.1 µM CBt, 1 µM DBt-10. As to the method: (§2) Whole cell lysates for immunoblotting were prepared by pelleting cells at 4 °C (300 g) for 3 min. Cell pellets were then washed 1x with PBS and resuspended in RIPA lysis buffer (VWR, cat # 97063-270) supplemented with protease (Thermo Scientific, cat # A32955) and phosphatase (Thermo Scientific, cat # A32957) inhibitor tablets. Lysates were clarified at 16,000 × g for 15 min at 4 °C prior to quantification by Lowry assay (Bio-Rad cat # 5000113 and cat # 5000114). Whole-cell lysates were loaded into 4–20% Criterion TGX Precast 18 well gels (Bio-Rad, cat # 5671094) and separated by electrophoreses at 120 V for 1 h. The gels were transferred to a nitrocellulose membrane using the Trans-Blot Turbo (Bio-Rad) for 7 min and then blocked for 1 h at room temperature in Odyssey blocking buffer (LICOR Biosciences, cat # 927-50000). Membranes were probed with the appropriate primary antibodies (diluted 1:1000) overnight at 4 °C in 20% Odyssey blocking buffer in 1x TBST. Membranes were washed three times with 1x TBST (5 min per wash), and then incubated with IRDye goat anti-mouse (LICOR, cat # 926-32210) or goat anti-rabbit (LICOR, cat # 926-32211) secondary antibody diluted 1:10,000 in 20% Odyssey blocking buffer for 1 h at room temperature. After three 5-min washes with 1x TBST, the immunoblots were visualized using the ODYSSEY Infrared Imaging System (LICOR). […]
In general terms: Immunoblotting shows a protein as a band on a membrane.

For assay [3], the target named is T1, BRD9 (Homo sapiens, UniProt Q9H8M2).
T1 sequence (Q9H8M2 1-597): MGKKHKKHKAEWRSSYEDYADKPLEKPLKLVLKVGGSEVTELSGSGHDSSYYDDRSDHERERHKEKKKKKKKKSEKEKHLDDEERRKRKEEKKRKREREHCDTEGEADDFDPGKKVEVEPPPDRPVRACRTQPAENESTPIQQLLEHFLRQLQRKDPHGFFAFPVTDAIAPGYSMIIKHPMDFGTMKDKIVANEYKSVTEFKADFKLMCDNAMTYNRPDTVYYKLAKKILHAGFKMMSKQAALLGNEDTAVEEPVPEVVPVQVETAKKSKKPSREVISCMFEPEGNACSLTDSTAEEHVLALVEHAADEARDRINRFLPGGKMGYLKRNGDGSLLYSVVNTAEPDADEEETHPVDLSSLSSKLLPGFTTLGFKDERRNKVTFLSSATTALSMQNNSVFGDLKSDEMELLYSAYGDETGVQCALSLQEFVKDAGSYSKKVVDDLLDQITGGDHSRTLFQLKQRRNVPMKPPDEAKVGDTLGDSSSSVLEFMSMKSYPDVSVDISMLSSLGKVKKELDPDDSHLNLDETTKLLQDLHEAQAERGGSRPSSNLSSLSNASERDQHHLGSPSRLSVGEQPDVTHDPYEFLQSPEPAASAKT
Nature of the assay: Rescue of DBr-1 mediated BRD9 degradation by co-treatment, BRD9-HiBiT HEK293 cells. It is filed as cell-based. Further details: host or cells: HEK293/BRD9-HiBiT knock-in; clone and BRD9-HiBiT/CAS9/FF clone. The settings on record: (13) 1 µM, OICR8268 10 µM, BI-9564 10 µM. As for the experimental part:
Supplementary figure 4. Competition experiments with DBr-1 and DBr-1-N […]
a) BRD9-HiBiT signal detection of samples pretreated with either DMSO, 10µM OICR-8268, 1µM […]
Data represents average ± standard deviation from n=3 replicates. DC50 values and […]
maximal observed degradation are shown below. […]
b) Cell titer Glow assay of BRD9 HiBiT cells. Cells pretreated with either DMSO, 10µM OICR-8268, […]
Data represents average ± standard deviation from n=3 replicates.
as §1

Assay [4] addresses T2, CSK (Homo sapiens, UniProt P41240).
T2 construct: host or cells: HEK293T
Description: Immunoblot of CSK in HEK293T cells. It is filed as cell-based. Particulars: 6 h. As for the experimental part: as §2

For assay [5], the target named is T3, LIMK2 (Homo sapiens, UniProt P53671).
T3 construct: host or cells: HEK293T
Description: Immunoblot of LIMK2 in HEK293T cells. It is filed as cell-based. Particulars: 6 h. As for the experimental part: as §2

Assay [6] addresses T4, ABL1 (Homo sapiens, UniProt P00519).
T4 construct: host or cells: HEK293T
Description: Immunoblot of ABL1 in HEK293T cells. Particulars: 6 h. It is filed as cell-based. As for the experimental part:
as §2

Structures are written as SMILES.

T2 sequence (P41240 whole entry): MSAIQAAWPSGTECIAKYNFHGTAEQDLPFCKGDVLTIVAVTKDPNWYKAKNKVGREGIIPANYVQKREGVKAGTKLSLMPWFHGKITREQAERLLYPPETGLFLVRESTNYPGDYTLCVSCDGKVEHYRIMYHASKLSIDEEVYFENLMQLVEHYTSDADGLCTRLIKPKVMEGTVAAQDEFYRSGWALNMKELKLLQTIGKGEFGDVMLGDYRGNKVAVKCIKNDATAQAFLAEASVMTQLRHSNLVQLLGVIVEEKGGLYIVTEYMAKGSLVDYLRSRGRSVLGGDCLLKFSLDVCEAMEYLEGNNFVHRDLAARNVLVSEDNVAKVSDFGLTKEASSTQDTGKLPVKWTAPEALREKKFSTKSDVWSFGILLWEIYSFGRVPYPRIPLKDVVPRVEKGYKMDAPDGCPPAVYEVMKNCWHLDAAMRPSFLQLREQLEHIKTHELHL
Sequence of BTK (Q06187 2-659 limits assumed): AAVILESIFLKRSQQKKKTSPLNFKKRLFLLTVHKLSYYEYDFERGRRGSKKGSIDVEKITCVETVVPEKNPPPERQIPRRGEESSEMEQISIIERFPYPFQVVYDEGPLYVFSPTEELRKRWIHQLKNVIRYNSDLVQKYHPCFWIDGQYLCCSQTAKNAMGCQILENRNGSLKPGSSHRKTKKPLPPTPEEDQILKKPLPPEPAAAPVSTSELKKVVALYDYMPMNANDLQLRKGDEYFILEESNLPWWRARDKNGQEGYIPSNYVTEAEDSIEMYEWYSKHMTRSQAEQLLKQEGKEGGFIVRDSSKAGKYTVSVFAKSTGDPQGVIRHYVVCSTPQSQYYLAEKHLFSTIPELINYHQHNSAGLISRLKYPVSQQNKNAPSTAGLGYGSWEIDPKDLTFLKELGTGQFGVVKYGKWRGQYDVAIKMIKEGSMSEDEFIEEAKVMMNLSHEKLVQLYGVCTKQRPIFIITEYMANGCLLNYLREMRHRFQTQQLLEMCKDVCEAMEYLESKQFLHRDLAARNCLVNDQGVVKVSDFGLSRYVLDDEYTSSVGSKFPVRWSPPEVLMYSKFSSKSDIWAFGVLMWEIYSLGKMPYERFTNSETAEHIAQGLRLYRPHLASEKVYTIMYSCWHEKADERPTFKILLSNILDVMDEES
T3 sequence (P53671 whole entry): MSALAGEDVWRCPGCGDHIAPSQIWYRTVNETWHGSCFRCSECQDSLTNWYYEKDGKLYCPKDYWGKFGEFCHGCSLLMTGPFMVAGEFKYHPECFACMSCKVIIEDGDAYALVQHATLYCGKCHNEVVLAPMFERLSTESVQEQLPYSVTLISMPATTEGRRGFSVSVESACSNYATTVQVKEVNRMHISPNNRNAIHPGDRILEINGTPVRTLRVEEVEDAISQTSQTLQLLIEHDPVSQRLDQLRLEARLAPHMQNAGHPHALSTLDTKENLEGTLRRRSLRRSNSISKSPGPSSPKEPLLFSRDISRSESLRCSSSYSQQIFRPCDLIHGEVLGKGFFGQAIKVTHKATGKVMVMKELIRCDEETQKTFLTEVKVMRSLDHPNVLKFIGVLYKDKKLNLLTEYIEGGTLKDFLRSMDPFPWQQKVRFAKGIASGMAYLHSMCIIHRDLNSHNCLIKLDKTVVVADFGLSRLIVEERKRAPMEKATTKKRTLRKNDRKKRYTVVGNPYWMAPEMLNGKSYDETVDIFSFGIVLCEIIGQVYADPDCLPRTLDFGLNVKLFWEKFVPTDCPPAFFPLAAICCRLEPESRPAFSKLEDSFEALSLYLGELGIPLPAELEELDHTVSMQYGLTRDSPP
T4 sequence (P00519 whole entry): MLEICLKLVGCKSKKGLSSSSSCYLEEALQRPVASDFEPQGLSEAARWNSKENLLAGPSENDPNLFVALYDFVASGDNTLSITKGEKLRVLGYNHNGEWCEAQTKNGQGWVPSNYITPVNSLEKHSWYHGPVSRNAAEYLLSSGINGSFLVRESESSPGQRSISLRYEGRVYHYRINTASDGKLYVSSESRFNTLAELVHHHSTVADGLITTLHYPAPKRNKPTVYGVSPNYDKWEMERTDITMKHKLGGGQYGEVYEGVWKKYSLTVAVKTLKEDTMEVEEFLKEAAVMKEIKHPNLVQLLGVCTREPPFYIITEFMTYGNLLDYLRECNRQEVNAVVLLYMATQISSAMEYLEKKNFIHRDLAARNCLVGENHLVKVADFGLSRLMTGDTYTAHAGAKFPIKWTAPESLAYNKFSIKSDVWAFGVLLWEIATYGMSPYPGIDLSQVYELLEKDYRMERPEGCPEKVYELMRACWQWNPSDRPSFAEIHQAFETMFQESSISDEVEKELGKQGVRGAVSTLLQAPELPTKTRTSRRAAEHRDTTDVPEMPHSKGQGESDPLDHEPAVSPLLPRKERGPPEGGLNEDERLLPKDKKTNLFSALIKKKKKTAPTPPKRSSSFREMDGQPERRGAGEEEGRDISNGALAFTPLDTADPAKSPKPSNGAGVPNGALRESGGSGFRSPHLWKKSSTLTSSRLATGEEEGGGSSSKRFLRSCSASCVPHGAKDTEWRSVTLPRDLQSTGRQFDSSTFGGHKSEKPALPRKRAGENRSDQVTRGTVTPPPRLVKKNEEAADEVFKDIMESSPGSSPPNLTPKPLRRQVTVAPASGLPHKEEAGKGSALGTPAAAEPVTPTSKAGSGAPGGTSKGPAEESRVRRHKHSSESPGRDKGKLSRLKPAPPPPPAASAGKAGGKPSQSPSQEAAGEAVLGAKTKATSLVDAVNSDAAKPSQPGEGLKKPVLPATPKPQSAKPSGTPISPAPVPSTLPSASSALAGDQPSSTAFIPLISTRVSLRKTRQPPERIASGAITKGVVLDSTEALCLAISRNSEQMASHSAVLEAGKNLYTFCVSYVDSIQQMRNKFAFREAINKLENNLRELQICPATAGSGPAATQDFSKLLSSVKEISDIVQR

With `Cc1c(NC(=O)N2CC(O)(CC(C)(C)C)C2)cc(F)cc1-c1ncnc2[nH]c(-c3cnn(CC(=O)N4CCC5(CC4)CN(CCNC(=O)CCCC(=O)N4CCN(c6ccc7c(NCCN)nc(C8(c9ccc(Cl)cc9)CCCCC8)nc7c6)CC4)CCO5)c3)cc12` [DBt-10], the “relative potency change between CBt sensitive and resistant TMD8 cells” value in assay [1] is recorded as “did not show any relative potency differences”. Besides, the “BTK degradation in TMD8 CBt sensitive (WT) vs resistant cells” value in assay [2] is “equipotent degradation of BTK”.

With `CC(=O)N1CCN(c2ccc3c(NCCN)nc(C4(c5ccc(Cl)cc5)CCCCC4)nc3c2)CC1` [compound 13], the “effect of co-treatment on DBr-1 mediated BRD9 degradation” value in assay [3] is “did not affect the degradation efficacy of DBr-1”.

`Cc1nc(Nc2ncc(C(=O)Nc3c(C)cccc3Cl)s2)cc(N2CCC(OC3CCN(CCCCCCCC(=O)N4CCN(c5ccc6c(NCCN)nc(C7(c8ccc(Cl)cc8)CCCCC7)nc6c5)CC4)CC3)CC2)n1` [DDa-1]: the CSK protein levels result in assay [4] is recorded as “significant reduction in protein levels”. Moreover, the LIMK2 protein levels entry in assay [5] is given as “significant reduction in protein levels”. Further, the ABL1 protein levels result in assay [6] is listed as “not”.
